Experimental data as given in US20070041899A1, “Radiolabelled substrates” (priority 2003, published 2007).

What was measured:
[1] = Rate of metabolism of [^11C]loperamide (arterial blood sampling) in pig
Description: (§1) The animals (pig, Yorkshire Iandrace, 37.5 kg, n=2) were scanned under terminal aneasthesia (ketamine induced isoflurane aneasthesia) on different days. For both animals an arterial cannula was inserted in one of the femoral arteries.

P-glycoprotein = P-glycoprotein (Sus scrofa, UniProt K7GMM7); settings: pig
Chain of P-glycoprotein (K7GMM7 1-1248): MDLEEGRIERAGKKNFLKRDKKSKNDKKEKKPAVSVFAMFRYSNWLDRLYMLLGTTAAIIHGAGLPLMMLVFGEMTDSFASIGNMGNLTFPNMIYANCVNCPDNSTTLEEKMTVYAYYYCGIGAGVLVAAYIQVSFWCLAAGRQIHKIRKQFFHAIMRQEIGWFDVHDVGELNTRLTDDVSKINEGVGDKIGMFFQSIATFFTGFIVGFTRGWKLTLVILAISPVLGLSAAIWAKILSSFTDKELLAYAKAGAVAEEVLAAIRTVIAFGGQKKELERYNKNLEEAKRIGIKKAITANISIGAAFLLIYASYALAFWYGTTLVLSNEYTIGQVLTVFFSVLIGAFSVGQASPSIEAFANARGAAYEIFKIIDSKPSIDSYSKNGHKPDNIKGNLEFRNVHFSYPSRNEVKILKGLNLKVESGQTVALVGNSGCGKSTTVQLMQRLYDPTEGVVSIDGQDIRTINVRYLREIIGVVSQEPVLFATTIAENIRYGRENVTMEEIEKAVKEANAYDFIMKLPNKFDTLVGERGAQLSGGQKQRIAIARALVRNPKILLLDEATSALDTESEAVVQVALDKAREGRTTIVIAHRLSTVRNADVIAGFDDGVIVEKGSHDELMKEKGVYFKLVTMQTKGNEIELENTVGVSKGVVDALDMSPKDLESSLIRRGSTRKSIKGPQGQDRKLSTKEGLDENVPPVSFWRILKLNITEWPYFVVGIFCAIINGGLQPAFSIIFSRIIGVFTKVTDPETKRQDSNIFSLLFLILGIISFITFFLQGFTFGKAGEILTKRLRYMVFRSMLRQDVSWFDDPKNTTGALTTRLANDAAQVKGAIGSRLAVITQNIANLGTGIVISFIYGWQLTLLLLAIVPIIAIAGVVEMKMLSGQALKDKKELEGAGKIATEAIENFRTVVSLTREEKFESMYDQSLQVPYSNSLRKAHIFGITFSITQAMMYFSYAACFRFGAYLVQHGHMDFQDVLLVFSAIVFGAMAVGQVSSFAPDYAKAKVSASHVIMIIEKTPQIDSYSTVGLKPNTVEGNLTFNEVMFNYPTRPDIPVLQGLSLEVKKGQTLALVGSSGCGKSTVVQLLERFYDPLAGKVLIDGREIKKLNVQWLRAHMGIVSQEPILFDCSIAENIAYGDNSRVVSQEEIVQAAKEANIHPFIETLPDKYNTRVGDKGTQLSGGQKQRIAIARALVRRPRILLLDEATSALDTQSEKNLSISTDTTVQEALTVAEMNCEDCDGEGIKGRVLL
Description: as §1

SMILES: CN([11CH3])C(=O)C(CCN1CCC(O)(c2ccc(Cl)cc2)CC1)(c1ccccc1)c1ccccc1 [[^11C]loperamide, ^11C—N-methyl-(4-chlorophenyl)+hydroxy-N,N-dimethyl-alpha,alpha-diphenyl-1-piperidinebutyramide]
- rate of metabolism: parent at 60 min post administration ([1]; at doses of CsA >10 mg/kg): approx. 80 % parent
- rate of metabolism: parent at 60 min post administration ([1]; without CsA >10 mg/kg (before decrease)): approx. 50 % parent
- Maximum increase of CNS penetration for the brain as a whole (P-glycoprotein; at a dose of 40-50 mg/kg Cyclosporin A i.v. 30 min prior): 7 fold
- % injected dose/L (CNS penetration) (P-glycoprotein; i.v. 1 min bolus, baseline conditions, PET): below 1%
- radioactive signal in the brain as measured with PET scanning (P-glycoprotein; i.v. various doses of cyclosporin A 30 min prior to injection): dose dependent increase
